Earlier results, collected in patent publication US20070258969A1, “Compositions and methods for targeting metastatic tumors using multivalent ligand-linked carbohydrate polymers” (priority 2004, published 2007).

Columns and labels:
[1] = system: L-1 sarcoma cells; details: in vivo
[2] = system: B16 melanoma cells; details: in vivo

## O=C[C@H](O)[C@@H](O)[C@@H](O)[C@H](O)CO [D-galactose]
[1]
  liver metastasis of L-1 sarcoma cells: inhibited liver metastasis

## CC(=O)N[C@H]1[C@H](O[C@H]2[C@@H](O)[C@@H](CO)O[C@@H](O[C@H]3[C@H](O)[C@@H](O)C(O)O[C@@H]3CO)[C@@H]2O)O[C@H](CO)[C@@H](O)[C@@H]1O[C@@H]1O[C@H](CO)[C@H](O)[C@H](O)[C@H]1O (stereo partly shown) [lacto-N-tetrose]
[2]
  metastasis of B16 melanoma cells: inhibit metastasis

## arabinogalactose
[1]
  liver metastasis of L-1 sarcoma cells: inhibited liver metastasis

## CO[C@H]1O[C@H](CO)[C@@H](O[C@@H]2O[C@H](CO)[C@H](O)[C@H](O)[C@H]2O)[C@H](O)[C@H]1O [methyl-α-D-lactoside]
[2]
  metastasis of B16 melanoma cells: inhibit metastasis
